Test [1] deals with Protein kinase C epsilon type (Homo sapiens) (UniProt Q02156). Kind of test: Inhibition of recombinant human PKCepsilon (2 to end residues) assessed as residual activity at 1 uM using ERMRPRKRQGSVRRRV as substrate measured after 40 mins in presence of [gamma33P]ATP by scintillation counting method relative to control.
For test [2], the target named is MAP kinase-activated protein kinase 3 (Homo sapiens) (UniProt Q16644). Kind of test: Inhibition of recombinant human MAPKAPK3 (2 to end residues) assessed as residual activity at 1 uM using KKLNRTLSVA as substrate incubated for 40 mins in presence of [gamma-33ATP by scintillation counting based radiometry assay relative to control.
Test [3] concerns RAC-gamma serine/threonine-protein kinase (Homo sapiens), Q9Y243 [S472D]. Kind of test: Inhibition of recombinant human PKBgamma S472D mutant (117 to end residues) assessed as residual activity at 1 uM using GRPRTSSFAEGKK as substrate incubated for 40 mins in presence of [gamma33P]ATP by scintillation counting based radiometry assay relative to control.
In test [4] the test system is Angiopoietin-1 receptor (Homo sapiens), Q02763 [Q939H,Q940H,R849W]. Kind of test: Inhibition of human Tie2 Q939H/Q940H/R849W mutant (771 to end residues) assessed as residual activity at 1 uM using EFPIYDFLPAKKK as substrate measured after 40 mins in presence of [gamma33P]ATP by scintillation counting method relative to control.
The target in test [5] is High affinity nerve growth factor receptor (Homo sapiens) (UniProt P04629). Kind of test: Inhibition of human TrkA (440 to end residues) assessed as residual activity at 1 uM using KKKSPGEYVNIEFG as substrate measured after 40 mins in presence of [gamma33P]ATP by scintillation counting method relative to control.
For test [6], the target named is Dual specificity mitogen-activated protein kinase kinase 6 (Homo sapiens) (UniProt P52564). Kind of test: Inhibition of recombinant human MKK6 (4 to end residues) assessed as residual activity at 1 uM using unactive SAPK2a as substrate measured after 40 mins in presence of [gamma33P]ATP by scintillation counting method.
Test [7] concerns the target Mitogen-activated protein kinase 1 (Homo sapiens) (UniProt P28482). Description: Inhibition of recombinant full length human MAPK1 assessed as residual activity at 1 uM using myelin basic protein as substrate incubated for 40 mins in presence of [gamma-33P]ATP by scintillation counting based radiometry assay relative to control.
Test [8] deals with Ribosomal protein S6 kinase alpha-4 (Homo sapiens) (UniProt O75676). Description: Inhibition of recombinant human MSK2 (2 to end residues) assessed as residual activity at 1 uM using GRPRTSSFAEGKK as substrate measured after 40 mins in presence of [gamma33P]ATP by scintillation counting method relative to control.
Test [9] concerns Serine/threonine-protein kinase Sgk2 (Homo sapiens), Q9HBY8 [S416D]. Kind of test: Inhibition of recombinant human SGK2 S416D mutant (54 to end residues) assessed as residual activity at 1 uM using GRPRTSSFAEGKK as substrate measured after 40 mins in presence of [gamma33P]ATP by scintillation counting method relative to control.
The target in test [10] is Transient receptor potential cation channel subfamily M member 7 (Homo sapiens) (UniProt Q96QT4). Kind of test: Inhibition of recombinant human CHAK1 (1180 to end residues) assessed as residual activity at 1 uM using myelin basic protein as substrate incubated for 40 mins in presence of [gamma-33ATP] by scintillation counting based radiometry assay relative to control.

In test [11] the target is Vascular endothelial growth factor receptor 1 (Homo sapiens) (UniProt P17948). Kind of test: Inhibition of recombinant human FLT1 (783 to end residues) assessed as residual activity at 1 uM using KKKSPGEYVNIEFG as substrate at 40 mins in presence of [gamma-33ATP] by scintillation counting based radiometry assay relative to control.
Test [12] deals with Mast/stem cell growth factor receptor Kit (Homo sapiens), P10721 [V560G]. Description: Inhibition of recombinant human C-Kit V560G mutant (544 to end residues) assessed as residual activity at 1 uM poly(Glu, Tyr) 4:1 as substrate incubated 40 mins in presence of [gamma-33ATP] by scintillation counting based radiometry assay relative to control.
The target in test [13] is SRSF protein kinase 1 (Homo sapiens) (UniProt Q96SB4). Kind of test: Inhibition of human SRPK1 (2 to end residues) assessed as residual activity at 1 uM using RSRSRSRSRSRSRSR as substrate measured after 40 mins in presence of [gamma33P]ATP by scintillation counting method relative to control.
For test [14], the target named is Ribosomal protein S6 kinase alpha-1 (Homo sapiens) (UniProt Q15418). Kind of test: Inhibition of recombinant full length human Rsk1 assessed as residual activity at 1 uM using KKKNRTLSVA as substrate measured after 40 mins in presence of [gamma33P]ATP by scintillation counting method relative to control.
In test [15] the target is Serine/threonine-protein kinase Chk2 (Homo sapiens) (UniProt O96017). Description: Inhibition of recombinant human CHK2 (5 to end residues) assessed as residual activity at 1 uM using KKKVSRSGLYRSPSMPENLNRPR as substrate incubated for 40 mins in presence of [gamma-33ATP] by scintillation counting based radiometry assay relative to control.
The target in test [16] is Mitogen-activated protein kinase kinase kinase 11 (Homo sapiens) (UniProt Q16584). Description: Inhibition of recombinant human MLK3 assessed as residual activity at 1 uM using by scintillation counting based radiometry assay relative to control.
Test [17] has as its target Cytoplasmic tyrosine-protein kinase BMX (Homo sapiens) (UniProt P51813). Description: Inhibition of recombinant full length human BMX assessed as residual activity at 1 uM using poly(Glu, Tyr) 4:1 as substrate incubated for 40 mins in presence of [gamma-33ATP] by scintillation counting based radiometry assay relative to control.
Test [18] deals with Casein kinase 2 (Homo sapiens) (UniProt P67870+P68400+P19784+Q8NEV1). Kind of test: Inhibition of recombinant human CK2 assessed as residual activity at 1 uM in presence of [gamma-33ATP] by scintillation counting based radiometry assay relative to control. It is filed as protein assay.
Test [19] addresses CDK2/Cyclin A1 (Homo sapiens) (UniProt P24941+P78396). Kind of test: Inhibition of recombinant full length human CDK2/CyclinA assessed as residual activity at 1 uM using Histone H1 as substrate incubated for 40 mins in presence of [gamma-33ATP] by scintillation counting based radiometry assay relative to control. It is filed as protein-complex assay.
The target in test [20] is Serine/threonine-protein kinase SIK1 (Homo sapiens) (UniProt P57059). Kind of test: Inhibition of recombinant human SIK (1 to 281 residues) assessed as residual activity at 1 uM using AMARAASAAALARRR as substrate measured after 40 mins in presence of [gamma33P]ATP by scintillation counting method assay relative to control.
For test [21], the target named is Serine/threonine-protein kinase ICK (Homo sapiens) (UniProt Q9UPZ9). Kind of test: Inhibition of human ICK (1 to 312 residues) assessed as residual activity at 1 uM using RRRFRPASPLRGPPK as substrate after 40 mins by [gamma-33ATP] radiometric assay relative to control.

Sequence of RAC-gamma serine/threonine-protein kinase (Homo sapiens), Q9Y243 [S472D] (Q9Y243 whole entry S472D): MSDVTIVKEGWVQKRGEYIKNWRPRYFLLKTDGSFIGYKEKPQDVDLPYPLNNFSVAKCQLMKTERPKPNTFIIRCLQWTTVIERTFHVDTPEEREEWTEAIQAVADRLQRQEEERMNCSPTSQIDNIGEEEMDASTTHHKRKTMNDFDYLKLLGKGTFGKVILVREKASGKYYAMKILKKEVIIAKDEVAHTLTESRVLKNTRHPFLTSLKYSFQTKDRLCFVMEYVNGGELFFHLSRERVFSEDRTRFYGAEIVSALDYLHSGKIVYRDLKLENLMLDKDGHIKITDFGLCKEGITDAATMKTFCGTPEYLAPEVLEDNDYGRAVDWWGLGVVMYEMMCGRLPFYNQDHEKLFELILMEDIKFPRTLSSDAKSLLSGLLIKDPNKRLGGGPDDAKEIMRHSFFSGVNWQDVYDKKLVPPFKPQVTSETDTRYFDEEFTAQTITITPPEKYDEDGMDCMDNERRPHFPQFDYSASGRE
Sequence of Ribosomal protein S6 kinase alpha-4 (Homo sapiens) (O75676 whole entry, looked up): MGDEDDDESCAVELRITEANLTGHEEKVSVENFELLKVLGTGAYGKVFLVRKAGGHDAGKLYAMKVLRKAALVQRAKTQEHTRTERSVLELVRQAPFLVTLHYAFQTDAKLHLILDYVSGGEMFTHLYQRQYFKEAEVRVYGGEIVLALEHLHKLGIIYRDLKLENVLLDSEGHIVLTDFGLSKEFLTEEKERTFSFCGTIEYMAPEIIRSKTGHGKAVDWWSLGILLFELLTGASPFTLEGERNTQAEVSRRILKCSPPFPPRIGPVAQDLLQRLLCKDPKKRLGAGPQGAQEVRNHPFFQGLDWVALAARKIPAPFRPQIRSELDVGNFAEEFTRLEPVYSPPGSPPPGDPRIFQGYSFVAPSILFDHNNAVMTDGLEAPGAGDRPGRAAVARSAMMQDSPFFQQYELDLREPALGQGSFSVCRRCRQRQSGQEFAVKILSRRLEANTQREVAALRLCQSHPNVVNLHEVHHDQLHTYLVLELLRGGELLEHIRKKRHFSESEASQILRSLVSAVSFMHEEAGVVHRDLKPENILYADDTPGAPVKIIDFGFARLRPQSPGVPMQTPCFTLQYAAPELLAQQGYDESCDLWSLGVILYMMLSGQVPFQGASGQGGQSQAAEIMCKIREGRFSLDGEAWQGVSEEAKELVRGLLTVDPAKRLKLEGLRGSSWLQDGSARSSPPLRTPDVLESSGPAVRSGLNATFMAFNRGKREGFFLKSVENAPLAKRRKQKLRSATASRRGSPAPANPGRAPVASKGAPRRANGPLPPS
Sequence of Cytoplasmic tyrosine-protein kinase BMX (Homo sapiens) (P51813 whole entry): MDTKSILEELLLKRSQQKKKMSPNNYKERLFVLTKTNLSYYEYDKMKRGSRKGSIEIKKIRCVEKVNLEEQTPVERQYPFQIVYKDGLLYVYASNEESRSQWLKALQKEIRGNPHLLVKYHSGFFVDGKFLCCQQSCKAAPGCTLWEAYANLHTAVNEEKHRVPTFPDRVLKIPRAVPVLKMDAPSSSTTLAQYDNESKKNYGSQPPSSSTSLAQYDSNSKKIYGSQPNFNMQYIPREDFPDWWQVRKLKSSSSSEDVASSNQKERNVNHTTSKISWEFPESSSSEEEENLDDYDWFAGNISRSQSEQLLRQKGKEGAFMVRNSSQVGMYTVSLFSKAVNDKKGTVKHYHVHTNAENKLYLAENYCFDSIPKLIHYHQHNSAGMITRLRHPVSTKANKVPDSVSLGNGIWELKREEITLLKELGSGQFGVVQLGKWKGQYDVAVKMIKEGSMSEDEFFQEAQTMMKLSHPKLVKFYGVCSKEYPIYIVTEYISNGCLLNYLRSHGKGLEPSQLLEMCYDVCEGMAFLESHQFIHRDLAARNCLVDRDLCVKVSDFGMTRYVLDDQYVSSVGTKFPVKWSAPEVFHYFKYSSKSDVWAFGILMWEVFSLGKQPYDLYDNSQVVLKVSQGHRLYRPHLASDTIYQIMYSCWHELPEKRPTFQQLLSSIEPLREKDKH
Sequence of Angiopoietin-1 receptor (Homo sapiens), Q02763 [Q939H,Q940H,R849W] (Q02763 whole entry R849W/Q939H/Q940H): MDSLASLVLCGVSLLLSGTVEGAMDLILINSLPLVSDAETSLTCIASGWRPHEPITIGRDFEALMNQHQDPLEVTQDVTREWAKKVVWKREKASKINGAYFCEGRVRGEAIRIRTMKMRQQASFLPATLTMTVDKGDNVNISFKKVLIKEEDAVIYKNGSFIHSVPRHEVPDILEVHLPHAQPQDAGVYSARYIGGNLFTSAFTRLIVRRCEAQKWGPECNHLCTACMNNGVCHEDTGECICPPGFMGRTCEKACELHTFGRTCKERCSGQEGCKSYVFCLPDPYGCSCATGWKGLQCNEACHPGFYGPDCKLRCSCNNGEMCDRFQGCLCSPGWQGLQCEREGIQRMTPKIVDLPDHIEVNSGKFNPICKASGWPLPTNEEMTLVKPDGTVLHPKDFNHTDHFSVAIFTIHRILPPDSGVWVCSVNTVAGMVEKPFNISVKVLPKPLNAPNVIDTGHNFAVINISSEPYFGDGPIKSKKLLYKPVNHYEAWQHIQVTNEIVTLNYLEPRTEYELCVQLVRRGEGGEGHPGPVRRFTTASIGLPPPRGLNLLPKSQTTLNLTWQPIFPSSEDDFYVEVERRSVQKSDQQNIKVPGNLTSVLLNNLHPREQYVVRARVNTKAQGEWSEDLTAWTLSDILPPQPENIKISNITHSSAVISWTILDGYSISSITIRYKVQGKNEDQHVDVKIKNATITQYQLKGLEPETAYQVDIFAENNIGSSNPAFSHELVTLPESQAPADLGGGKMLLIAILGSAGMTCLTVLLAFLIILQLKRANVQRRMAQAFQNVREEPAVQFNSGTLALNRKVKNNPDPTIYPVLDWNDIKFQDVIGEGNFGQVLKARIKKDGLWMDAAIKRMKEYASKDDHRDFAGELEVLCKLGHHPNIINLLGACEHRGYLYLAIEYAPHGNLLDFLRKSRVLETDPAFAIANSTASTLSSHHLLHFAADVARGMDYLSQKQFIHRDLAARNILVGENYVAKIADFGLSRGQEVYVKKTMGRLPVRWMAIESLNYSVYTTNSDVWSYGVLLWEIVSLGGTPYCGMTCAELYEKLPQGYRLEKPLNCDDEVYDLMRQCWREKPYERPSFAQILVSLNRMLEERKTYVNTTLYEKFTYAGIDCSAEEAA
Sequence of Ribosomal protein S6 kinase alpha-1 (Homo sapiens) (Q15418 whole entry): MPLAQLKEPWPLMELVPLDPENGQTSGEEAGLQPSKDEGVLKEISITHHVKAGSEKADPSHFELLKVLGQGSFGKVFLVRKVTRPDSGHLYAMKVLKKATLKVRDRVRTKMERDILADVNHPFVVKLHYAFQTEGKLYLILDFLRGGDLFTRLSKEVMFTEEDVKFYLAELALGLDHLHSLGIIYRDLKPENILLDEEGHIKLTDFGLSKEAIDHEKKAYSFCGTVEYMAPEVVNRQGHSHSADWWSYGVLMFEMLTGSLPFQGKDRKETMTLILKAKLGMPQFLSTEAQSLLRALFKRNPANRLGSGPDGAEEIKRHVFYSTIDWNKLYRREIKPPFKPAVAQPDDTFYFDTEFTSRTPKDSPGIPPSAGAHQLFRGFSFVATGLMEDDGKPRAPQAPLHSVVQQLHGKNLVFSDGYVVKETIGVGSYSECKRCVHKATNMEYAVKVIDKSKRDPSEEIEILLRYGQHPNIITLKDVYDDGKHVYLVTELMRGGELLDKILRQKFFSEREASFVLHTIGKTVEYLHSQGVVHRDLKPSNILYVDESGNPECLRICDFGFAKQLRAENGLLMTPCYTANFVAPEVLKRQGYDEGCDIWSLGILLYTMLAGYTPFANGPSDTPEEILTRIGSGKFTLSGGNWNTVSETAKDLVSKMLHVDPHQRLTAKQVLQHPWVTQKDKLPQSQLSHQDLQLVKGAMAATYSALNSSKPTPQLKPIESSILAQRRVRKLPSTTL
Sequence of SRSF protein kinase 1 (Homo sapiens) (Q96SB4 whole entry): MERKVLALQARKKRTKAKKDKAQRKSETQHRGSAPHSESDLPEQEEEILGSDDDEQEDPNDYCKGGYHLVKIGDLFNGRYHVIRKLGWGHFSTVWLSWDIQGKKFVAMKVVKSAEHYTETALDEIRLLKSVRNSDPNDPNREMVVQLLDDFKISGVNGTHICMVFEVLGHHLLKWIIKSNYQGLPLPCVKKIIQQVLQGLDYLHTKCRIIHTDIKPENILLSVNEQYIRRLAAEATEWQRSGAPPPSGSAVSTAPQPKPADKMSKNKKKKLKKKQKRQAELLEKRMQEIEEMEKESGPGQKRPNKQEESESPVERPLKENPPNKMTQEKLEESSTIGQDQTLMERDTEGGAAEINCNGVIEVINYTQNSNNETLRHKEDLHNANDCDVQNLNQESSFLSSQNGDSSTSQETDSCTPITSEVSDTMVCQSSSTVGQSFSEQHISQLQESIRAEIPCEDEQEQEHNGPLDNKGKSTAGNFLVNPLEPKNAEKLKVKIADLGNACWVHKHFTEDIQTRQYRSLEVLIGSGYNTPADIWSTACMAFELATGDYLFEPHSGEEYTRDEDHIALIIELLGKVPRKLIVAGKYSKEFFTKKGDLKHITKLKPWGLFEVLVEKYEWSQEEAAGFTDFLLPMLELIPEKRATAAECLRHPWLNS
Sequence of Mitogen-activated protein kinase 1 (Homo sapiens) (P28482 whole entry): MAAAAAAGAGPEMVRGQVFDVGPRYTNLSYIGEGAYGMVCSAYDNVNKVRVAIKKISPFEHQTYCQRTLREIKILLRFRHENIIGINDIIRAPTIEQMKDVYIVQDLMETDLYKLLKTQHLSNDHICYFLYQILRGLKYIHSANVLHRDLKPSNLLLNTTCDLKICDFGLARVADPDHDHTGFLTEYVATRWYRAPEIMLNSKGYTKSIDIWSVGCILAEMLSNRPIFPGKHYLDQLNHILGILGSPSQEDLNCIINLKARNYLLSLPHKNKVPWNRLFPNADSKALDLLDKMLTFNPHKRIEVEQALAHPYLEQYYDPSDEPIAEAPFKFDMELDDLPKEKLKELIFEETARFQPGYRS

Regarding `N=C1NC(=O)/C(=C\c2ccc(-c3cccc([N+](=O)[O-])c3)o2)S1`, the Activity in test [1] stood at 106%; in [2], 97%; in [3], 100%; in [4] it was 91%; in test [5] it was 93%; in [6], 78%. The Activity in [7] was determined as 97%; in test [8], 97%; in test [9], 101%; in [10], 104%; in test [11], 97%; in test [12] it was 92%. Moreover, the Activity in [13] amounted to 94%; in test [14] it was 105%; in [15], 94%; in test [16] it was 96%; in test [17] it was 101%; in test [18], 43%. Moreover, the Activity in [19] turned out to be 61%; in [20] it was 105%; in test [21] it was 18%.

In the case of `C=CCOC(=O)c1cc(-c2ccc(/C=C3/NC(=S)NC3=O)o2)ccc1Cl`, the Activity in test [1] is 99%; in test [2], 96%; in test [3] it was 72%; in test [4], 105%; in test [5], 100%; in test [6], 121%. For the same molecule, the Activity was found to be 106% in [7]; 103% in test [8]; 108% in test [9]; 99% in test [10]; 96% in test [11]; 100% in [12]. Moreover, the Activity amounted to 104% in test [13]; 90% in [14]; 92% in test [15]; 89% in test [16]; 103% in test [17]; 58% in test [18]. For the same molecule, the Activity was 54% in [19], 107% in test [20] and 28% in test [21].

(Values after ChEMBL document CHEMBL4334438, “Discovery of novel glycogen synthase kinase-3α inhibitors: Structure-based virtual screening, preliminary SAR and biological evaluation for treatment of acute myeloid leukemia” (Eur J Med Chem, 2019).)
